Data on 18 compounds can be found in US8575167B2, “Spiro compounds having stearoyl-CoA desaturase action” (Takeda Pharmaceutical Company Limited, priority 2007, dated 2013).

The subject of the first assay is Diet-Induced Obesity (DIO) Model Mouse. Nature of the assay: Antiobesity action on diet-induced obesity (DIO) model mouse: liver unsaturation index number (C18:1/C18:0). In kind it is in vivo. The following applies: diet-induced obesity model group; liver C18:1/C18:0 ratio; 0.1 mg/kg body weight by gavage for 4 weeks; n=7. The source says: Male C57BL/6J mice (6-week-old) were purchased from CLEA Japan, Inc. The mice were divided into two groups, and a high fat diet (Research Diets, Inc.; solid D12451) was given to one group and a general feed for rearing and breeding (CLEA Japan, Inc.; solid CE-2) was given to the other group.
Each group was reared for 4 months under full feeding, and divided into a diet-induced obesity model group and a general feed group using the body weight and plasma triglyceride concentration as indices. […] of a 0.5% methylcellulose suspension of the compound of Example 15 (0.1 mg/kg body weight) was administered to each of the diet-induced obesity model group and the general feed group by gavage for 4 weeks (each group n=7). […] The body weight of each group was measured during the dosing period. […]
The liver total lipid sample extracted by the above-mentioned procedure was labeled using an ester type fatty acid labeling reagent (YMC). The labeled sample was dissolved in methanol (5 μL) and analyzed using YMC-Pack FA (6.0Φ×250 mm), CH3CN:H2O:0.1% TFA (850:150:2) as a mobile phase at a flow rate of 1.2 mL/min. The peak area of each fatty acid in the sample was determined as a C18:1/C18:0 ratio from the peak area of each standard product and used as an unsaturation index number which is an index of the enzyme activity of SCD. […]
Take `Cc1nsc(-c2ccc(N3CCC4(C3)OCc3ccccc34)nn2)n1` (centres unmarked) [Example 15, 1′-[6-(3-methyl-1,2,4-thiadiazol-5-yl)pyridazin-3-yl]-3H-spiro[2-benzofuran-1,3′-pyrrolidine]]: the “unsaturation index number (mean ± SD)” value was 43.886 ± 2.0318.

The same assay, now with this note: general feed group; liver C18:1/C18:0 ratio; 0.1 mg/kg body weight by gavage for 4 weeks; n=7.
Take `Cc1nsc(-c2ccc(N3CCC4(C3)OCc3ccccc34)nn2)n1` (centres unmarked) [Example 15, 1′-[6-(3-methyl-1,2,4-thiadiazol-5-yl)pyridazin-3-yl]-3H-spiro[2-benzofuran-1,3′-pyrrolidine]]: the “unsaturation index number (mean ± SD)” value stood at 29.017 ± 1.2254.

The target of the next assay is T1, SCD (Rattus norvegicus, UniProt P07308).
T1 construct: an enzyme reaction using rat liver microsome (20 μg) was performed for 15 min; from tissue; host or cells: rat liver microsome fraction
T1 sequence (P07308 1-358): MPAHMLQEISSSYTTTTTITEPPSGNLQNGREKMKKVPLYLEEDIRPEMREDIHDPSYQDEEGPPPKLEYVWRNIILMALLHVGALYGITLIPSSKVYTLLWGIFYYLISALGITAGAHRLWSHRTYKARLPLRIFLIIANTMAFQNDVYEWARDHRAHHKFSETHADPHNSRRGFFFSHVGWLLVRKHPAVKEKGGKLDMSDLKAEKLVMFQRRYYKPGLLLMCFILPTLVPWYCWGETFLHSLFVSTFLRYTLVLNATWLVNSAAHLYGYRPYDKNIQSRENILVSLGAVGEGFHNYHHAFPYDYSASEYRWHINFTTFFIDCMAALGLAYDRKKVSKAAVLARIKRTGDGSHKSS
Nature of the assay: Measurement of SCD inhibitory activity using microsome (TLC detection system). In kind it is biochemical. Conditions: rat liver microsome (20 μg), 15 min, [14C] stearoyl-CoA; test compound (10 mM) diluted to 3/1000 with 3× buffer, 10 μL in 30 μL reaction. As to the method: (Test Method: Measurement of SCD Inhibitory Activity Using Microsome (TLC Detection System))
A test compound (10 mM) diluted with DMSO in advance was secondarily diluted to 3/1000 with 3× buffer (300 mmol/L NaH2PO4 [pH 7.4], 450 mM KCl, 30 mM NaF, 9 mM MgCl2, 4.5 mM glutathione [reduced form], 0.3% BSA [fatty acid free, SIGMA]). The test compound (10 μL) diluted with the assay buffer was dispensed to a PP 96-deep well block, and a microsome fraction (10 μL) diluted with a microsome buffer was added thereto. The enzyme reaction was started by the addition of 10 μL of [^14C] stearoyl-CoA (American Radiolabeled Chemicals [ARC], Inc.) diluted to 10 μCi/mL with 9 mmol/L NADH. For evaluation of the compound, an enzyme reaction using rat liver microsome (20 μg) was performed for 15 min. The reaction was quenched by the addition of 10 μL of 2.5N NaOH, a plate seal was applied, and the reaction mixture was incubated overnight in a dry heater set to 65° C. to allow saponification. Solvent extraction of fatty acid was based on the Bligh&Dyer method (1). Formic acid:methanol:chloroform (1:6:3) (200 μL) was added, the state of single layer was maintained, the mixture was sufficiently stirred, and pure water (120 μL) was added to allow separation into two layers. The lower chloroform layer (10 μL) was spotted on reversed-phase TLC plate (RP-18, 1154230001, Merck Japan, Ltd.) and developed with acetonitrile:pure water:acetic:acid (95:4.5:0.5). The TLC plate was dried and transferred onto an Imaging Plate (Fuji Photo Film Co., Ltd.) for not less than 5 hr. For detection, BAS-5000 (Fuji Photo Film Co., Ltd) was used and the obtained spot images were converted to numerical values using Multi Gauge Ver2.3 (Fuji Photo Film Co., Ltd), based on which the SCD activity inhibitory rate (%) was determined.
For orientation: Liver microsomes are a subcellular fraction often used to study metabolism.
As for `Cc1noc(-c2ccc(N3CCC4(C3)OCc3ccccc34)nn2)n1` (centres unmarked) [Example 177, 1′-[6-(3-methyl-1,2,4-oxadiazol-5-yl)pyridazin-3-yl]-3H-spiro[2-benzofuran-1,3′-pyrrolidine]], the “SCD activity inhibitory rate (%)” value worked out at 99%.

On to `Cc1noc(-c2ccc(N3CCC4(C3)OCc3ccccc34)nn2)n1` (centres unmarked) [Example 178, 1′-[6-(3-methyl-1,2,4-oxadiazol-5-yl)pyridazin-3-yl]-3H-spiro[2-benzofuran-1,3′-pyrrolidine]], for which the “SCD activity inhibitory rate (%)” value turned out to be 97%. Take `Cc1noc(-c2ccc(N3CCC4(COc5ccccc54)C3)nn2)n1` (centres unmarked) [Example 179 (long retention time), 1′-[6-(3-methyl-1,2,4-oxadiazol-5-yl)pyridazin-3-yl]spiro[1-benzofuran-3,3′-pyrrolidine]]: the “SCD activity inhibitory rate (%)” value is listed as 96%. Same read-out and setting: for `Cc1noc(-c2ccc(N3CCC4(COc5ccccc54)C3)nn2)n1` (centres unmarked) [Example 179 (short retention time), 1′-[6-(3-methyl-1,2,4-oxadiazol-5-yl)pyridazin-3-yl]spiro[1-benzofuran-3,3′-pyrrolidine]] the value was 100%.

The same assay, now with this note: rat liver microsome (20 μg), 15 min, [14C] stearoyl-CoA; test compound (10 mM) diluted to 3/1000 with 3× buffer, 10 μL in 30 μL reaction; read-out: SCD activity inhibitory rate (%).
Regarding `Cc1nsc(-c2ccc(N3CCC4(C3)OCc3ccccc34)nn2)n1` (centres unmarked) [Example 15, 1′-[6-(3-methyl-1,2,4-thiadiazol-5-yl)pyridazin-3-yl]-3H-spiro[2-benzofuran-1,3′-pyrrolidine]], the inhibition at 10 µM was determined as 100%. On the same count and under the same terms, for `O=C(CNC(=O)c1ccc(N2CCC3(C=Cc4ccccc43)CC2)nn1)c1ccccc1` [Example 55, N-(2-oxo-2-phenylethyl)-6-(1′H-spiro[indene-1,4′-piperidin]-1′-yl)pyridazine-3-carboxamide] the value was 99%. The same measure, in the same setting: the value for `O=C(NCC(O)c1ccccc1)c1ccc(N2CCC3(C=Cc4ccccc43)CC2)nn1` (centres unmarked) [Example 60, N-(2-hydroxy-2-phenylethyl)-6-(1′H-spiro[indene-1,4′-piperidin]-1′-yl)pyridazine-3-carboxamide] was 98%; that for `O=C(NCCc1cccnc1)c1ccc(N2CCC3(C=Cc4ccccc43)CC2)nn1` [Example 74, N-(2-(pyridin-3-yl)ethyl)-6-(1′H-spiro[indene-1,4′-piperidin]-1′-yl)pyridazine-3-carboxamide] was 98%; that for `O=C(NCC(O)Cc1ccccc1)c1ccc(N2CCC3(C=Cc4ccccc43)CC2)nn1` (centres unmarked) [Example 86, N-(2-hydroxy-3-phenylpropyl)-6-(1′H-spiro[indene-1,4′-piperidin]-1′-yl)pyridazine-3-carboxamide] was 100%. On the same count and under the same terms, the value for `O=C(N[C@H]1C[C@@H]1c1ccccc1)c1ccc(N2CCC3(C=Cc4ccccc43)CC2)nn1` [Example 126, N-[(1S,2R)-2-phenylcyclopropyl]-6-(1′H-spiro[indene-1,4′-piperidin]-1′-yl)pyridazine-3-carboxamide] was 98%; that for `OCc1noc(-c2ccc(N3CCC4(CC3)COc3ccccc34)nn2)n1` [Example 143, {5-[6-(1′H-spiro[1-benzofuran-3,4′-piperidin]-1′-yl)pyridazin-3-yl]-1,2,4-oxadiazol-3-yl}methanol] was 100%; that for `CC1CSC(c2ccc(N3CCC4(CC3)COc3ccccc34)nn2)=N1` (centres unmarked) [Example 146, 1′-[6-(4-methyl-4,5-dihydro-1,3-thiazol-2-yl)pyridazin-3-yl]spiro[1-benzofuran-3,4′-piperidine]] was 97%. Regarding `OCc1nc(-c2ccc(N3CCC4(CC3)COc3ccccc34)nn2)no1` [Example 148, {3-[6-(1′H-spiro[1-benzofuran-3,4′-piperidin]-1′-yl)pyridazin-3-yl]-1,2,4-oxadiazol-5-yl}methanol], the inhibition at 10 µM is 100%. Still for that read-out and setting: for `Cc1nc(-c2ccc(N3CCC4(C3)OCc3ccccc34)nn2)no1` (centres unmarked) [Example 150, 1′-[6-(5-methyl-1,2,4-oxadiazol-3-yl)pyridazin-3-yl]-3H-spiro[2-benzofuran-1,3′-pyrrolidine]] the value was 99%; for `OCc1noc(-c2ccc(N3CCC4(C3)OCc3ccccc34)nn2)n1` (centres unmarked) [Example 156, {5-[6-(1′H,3H-spiro[2-benzofuran-1,3′-pyrrolidin]-1′-yl)pyridazin-3-yl]-1,2,4-oxadiazol-3-yl}methanol], 100%; for `OCc1noc(-c2ccc(N3CCC4(COc5ccccc54)C3)nn2)n1` (centres unmarked) [Example 157, {5-[6-(1′H-spiro[1-benzofuran-3,3′-pyrrolidin]-1′-yl)pyridazin-3-yl]-1,2,4-oxadiazol-3-yl}methanol], 100%.

As for `Cc1noc(-c2ccc(N3CCC4(C3)C(=O)N(C)c3ccccc34)nn2)n1` (centres unmarked) [Example 159, 1-methyl-1′-[6-(3-methyl-1,2,4-oxadiazol-5-yl)pyridazin-3-yl]spiro[indole-3,3′-pyrrolidin]-2(1H)-one], the inhibition at 10 µM amounted to 99%. On the same count and under the same terms, the value for `Cc1noc(-c2ccc(N3CCC4(Cc5ccccc5O4)C3)nn2)n1` (centres unmarked) [Example 170, 1′-[6-(3-methyl-1,2,4-oxadiazol-5-yl)pyridazin-3-yl]-3H-spiro[1-benzofuran-2,3′-pyrrolidine]] was 100%.
